Data taken from US20250161263A1, “USE OF A COMPOUND, PHARMACEUTICAL FORMULATION, METHOD OF TREATMENT FOR ASTHMA AND/OR COPD, AND COMPOUND” (FUNDAÇÃO OSWALDO CRUZ, priority 2022, published 2025).
Entries after “also recorded” stand apart in the source; their conditions may differ.

Key:
Type in all cases: in vivo, mice (BALB/c)
IL-4 = IL-4 in bronchoalveolar lavage by ELISA, airway hypersensitivity model; conditions: p<0.05
Method: (§1) The ovalbumin-induced airway hypersensitivity model (BOLANDI et al., 2021), used as the basis for the present findings, induces pathophysiological and structural changes which characterize respiratory diseases such as asthma and chronic obstructive pulmonary disease (COPD).
(§2) The mice were divided into groups of six animals and immunized with a subcutaneous injection of 10 μg of ovalbumin (Sigma, St. Louis, MO) diluted in 2 mg/ml alum (Alunmlmject; Pierce, Rockford, IL), followed by of a booster injection 14 days later. From day 28 onwards, the mice were placed in an acrylic box and subjected to inhalation exposure to ovalbumin (1%) for 15 minutes per day, for five consecutive days. The ovalbumin solution was nebulized using an ultrasonic inhaler (RespiraMax, Brazil). […]
The animals were euthanized with a lethal dose of ketamine and xylazine (300 mg/Kg and 30 mg/Kg, respectively via i.p.) 24 hours after the last challenge to collect bronchoalveolar lavage (BAL). […] The first wash was centrifuged and the supernatant stored at −70° C. for subsequent quantification of cytokines by ELISA. […]
(§3) The bronchoalveolar lavage supernatant stored at −70° C. was thawed and used to quantify the cytokines IL-4, IL-5 and IL-13 by the ELISA method, using specific kits (R&D System, Minnesota, MN, USA) for mice, following the manufacturer's instructions (VASCONCELOS, 2009).

[1] = system: total inflammatory cells in bronchoalveolar lavage (airway hypersensitivity model in mice); assay: Total inflammatory cell count in bronchoalveolar lavage, ovalbumin-induced airway hypersensitivity model; conditions: vs vehicle
Method: as §1
as §2, with “Brazil). The protocol used to induce airway hypersensitivity was performed as previously described (POSSA, 2013). The naive group was challenged with saline only.” for “Brazil).”
(§4) The animals were euthanized with a lethal dose of ketamine and xylazine (300 mg/Kg and 30 mg/Kg, respectively via i.p.) 24 hours after the last challenge to collect bronchoalveolar lavage (BAL). Intratracheal instillation of 1 ml of ice-cold PBS was performed, followed by BAL collection, and this procedure was repeated. The first wash was centrifuged and the supernatant stored at −70° C. for subsequent quantification of cytokines by ELISA. The second wash was centrifuged, the supernatant was discarded and the pellets were resuspended in 1 ml of saline to count total leukocytes using a Neubauer chamber. To carry out the differential cell count, 10,000 cells were collected from the previous resuspension, centrifuged in Cytospin® and stained with hematoxylin and eosin (VASCONCELOS, 2009).

IL-5 = IL-5 in bronchoalveolar lavage by ELISA, airway hypersensitivity model
Method: as §1
(§5) The mice were divided into groups of six animals and immunized with a subcutaneous injection of 10 μg of ovalbumin (Sigma, St. Louis, MO) diluted in 2 mg/ml alum (Alunmlmject; Pierce, Rockford, IL), followed by of a booster injection 14 days later. From day 28 onwards, the mice were placed in an acrylic box and subjected to inhalation exposure to ovalbumin (1%) for 15 minutes per day, for five consecutive days. The ovalbumin solution was nebulized using an ultrasonic inhaler (RespiraMax, Brazil). The protocol used to induce airway hypersensitivity was performed as previously described (POSSA, 2013). The naive group was challenged with saline only. To carry out the treatments, two hours before each challenge via inhalation, the mice were treated with braylin ([…] and 12.5 mg/kg, via inhalation), dexamethasone (30 mg/kg via intraperitoneal) or vehicle (10% propylene glycol in saline, inhaled).
as §4, with “To carry out the differential cell count, 10,000 cells were collected from the previous resuspension, centrifuged in Cytospin® and stained with hematoxylin and eosin (VASCONCELOS, 2009).” left out
as §3

IL-13 = IL-13 in bronchoalveolar lavage by ELISA, airway hypersensitivity model
Method: as §1, §5
as §4, with “To carry out the differential cell count, 10,000 cells were collected from the previous resuspension, centrifuged in Cytospin® and stained with hematoxylin and eosin (VASCONCELOS, 2009).” left out
as §3

[2] = system: eosinophils, neutrophils and mononuclear cells in bronchoalveolar lavage; assay: Differential count of eosinophils, neutrophils and mononuclear cells in bronchoalveolar lavage, airway hypersensitivity model; conditions: 50 mg/Kg by inhalation
Method: as §1, §5, §4

[3] = system: PAS-labeled mucus-producing goblet cells of the bronchiolar epithelium; assay: Goblet cell metaplasia / mucus production, PAS-stained lung sections, airway hypersensitivity model; conditions: braylin treatment (FIG. 5: 50 mg/kg/in), p<0.05
Method: as §1, §2
After collecting the bronchoalveolar lavage, lung perfusion was performed intratracheally with 1 ml formalin (4%) and, subsequently, the right lobe of the lungs of each animal was removed and fixed in the same solution for histological and morphometric analysis. The sections were stained with hematoxylin and eosin to quantify inflammatory cells by optical microscopy according to the number of cores present in the fields with the largest population of cells. To quantify mucus production, staining was performed with periodic acid-Schiff (PAS) and the marked areas were quantified. […]

[4] = system: inflammatory cells in lung tissue; assay: Pulmonary inflammatory infiltrate, HE-stained lung sections, airway hypersensitivity model; conditions: 50 mg/kg inhaled, vs vehicle, p<0.05
Method: The mice were divided into groups of six animals and immunized with a subcutaneous injection of 10 μg of ovalbumin (Sigma, St. Louis, MO) diluted in 2 mg/ml alum (Alunmlmject; Pierce, Rockford, IL), followed by of a booster injection 14 days later. From day 28 onwards, the mice were placed in an acrylic box and subjected to inhalation exposure to ovalbumin (1%) for 15 minutes per day, for five consecutive days. The ovalbumin solution was nebulized using an ultrasonic inhaler (RespiraMax, Brazil). […] The naive group was challenged with saline only.
After collecting the bronchoalveolar lavage, lung perfusion was performed intratracheally with 1 ml formalin (4%) and, subsequently, the right lobe of the lungs of each animal was removed and fixed in the same solution for histological and morphometric analysis. The sections were stained with hematoxylin and eosin to quantify inflammatory cells by optical microscopy according to the number of cores present in the fields with the largest population of cells. […] 10 fields (400×) per animal were analyzed for a total of 5 animals, and the data were used to calculate the average number of cells per mm^2, or the area stained with PAS. The program used to assist in cell counting and area determination was Image-Pro PLUS, version 4.5 (Media Cybernetics, Silver Spring, USA).

With `COc1cc2ccc(=O)oc2c2c1OC(C)(C)C=C2` [braylin] the “level of IL-4 in BAL” value (IL-4; 25 mg/kg inhaled) was “reduced”, the “level of IL-4 in BAL” value (IL-4; 50 mg/kg inhaled) was “reduced” and the “number of inflammatory cells in the BAL” value ([1]; 12.5 mg/kg by inhalation) was “no effect”. The “number of inflammatory cells in the BAL” value ([1]; 25 mg/kg by inhalation, p<0.05) was “reduced”, the “number of inflammatory cells in the BAL” value ([1]; 50 mg/kg by inhalation, 5 consecutive days, p<0.05) was “significantly lower; also recorded: reduced” and the “number of inflammatory cells in the BAL” value ([1]; 50 mg/kg intraperitoneally, 5 consecutive days, p<0.05) was “significantly lower”. The “number of inflammatory cells in the BAL” value ([1]; 100 mg/kg by inhalation, p<0.05) was “reduced”, the “level of IL-5 in BAL” value (IL-5; 12.5 mg/kg inhaled) was “significant reduction” and the “level of IL-5 in BAL” value (IL-5; 25 mg/kg inhaled, p<0.05) was “reduced”. The “level of IL-5 in BAL” value (IL-5; 50 mg/kg inhaled, p<0.05) was “reduced”, the “level of IL-13 in BAL” value (IL-13; 12.5 mg/kg inhaled) was “significant reduction” and the “level of IL-13 in BAL” value (IL-13; 25 mg/kg inhaled, p<0.05) was “reduced”. The “level of IL-13 in BAL” value (IL-13; 50 mg/kg inhaled, p<0.05) was “reduced”, the “quantity of mononuclear cells in BAL” value ([2]; compared with naive group) was “approached the values found in mice in the naive group” and the “amount of eosinophils present in BAL” value ([2]; vs vehicle, p<0.05) was “reduced”. The “amount of neutrophils present in BAL” value ([2]; vs vehicle, p<0.05) was “reduced”, the “Goblet cell labeling (PAS) in the bronchiolar epithelium, mucus production” value [3] was “reduced” and the “lung inflammation, presence of inflammatory cells in HE-stained lung” value [4] was “reduction in lung inflammation”.
